The record followed here is patent US12018023B2 (NERVIANO MEDICAL SCIENCES S.R.L., priority 2018, dated 2024).

The target in one assay is T1, IDH1^R132C (Homo sapiens, UniProt O75874, R132C).
T1 construct: purchased not specified
In words: NADPH depletion assay, IDH1 R132C. The class given is biochemical. In short, it runs like this:
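IDH1 R132C (2 nM) preincubated 15 min at RT with compound in Tris-HCl pH 7.6/MgCl2 buffer, then 60 min RT with NADPH and 0.14 mM alpha-ketoglutarate. Remaining NADPH read by diaphorase/resazurin fluorescence (Ex544/Em590).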

A further assay deals with T2, IDH1WT enzyme (Homo sapiens, UniProt O75874).
T2 construct: purchased not specified
T2 sequence (O75874 whole entry): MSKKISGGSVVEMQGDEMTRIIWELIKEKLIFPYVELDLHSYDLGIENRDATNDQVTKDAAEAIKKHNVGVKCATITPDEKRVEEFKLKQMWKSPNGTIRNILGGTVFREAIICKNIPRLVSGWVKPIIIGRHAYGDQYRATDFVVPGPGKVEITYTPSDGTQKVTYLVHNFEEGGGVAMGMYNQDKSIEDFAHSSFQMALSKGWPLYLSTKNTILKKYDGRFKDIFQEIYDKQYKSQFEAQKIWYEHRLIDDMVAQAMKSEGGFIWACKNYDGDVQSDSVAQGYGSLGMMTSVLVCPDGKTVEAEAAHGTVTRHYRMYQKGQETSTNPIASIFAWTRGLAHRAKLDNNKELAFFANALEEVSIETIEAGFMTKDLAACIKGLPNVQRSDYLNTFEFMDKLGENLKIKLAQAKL
Nature of the assay: Enzymatic assay for IDH1 wild-type (NADPH forming assay). The class given is biochemical. The protocol: IDH1WT enzymatic activity converting isocitric acid to alpha-ketoglutarate is measured using a NADPH forming assay. In the assay the forming cofactor is measured in continuous with the addition of a catalytic excess of diaphorase and resazurin, to generate a fluorescent signal in proportion to the amount of NADPH forming.
Compounds were preincubated with the enzyme, then the reaction was started by the addition of NADP^+, isocitrate, diaphorase and a corresponding substrate, resazurin. Diaphorase reduces resazurin to the highly fluorescent resorufin with the concomitant oxidation of NADPH to NADP. Specifically, 0.2 uL of test compound, previously serially diluted 1 to 3, 10 experimental points from 1 mM in DMSO, was added to 0.016 nM IDH1WT enzyme in 10 μL of Assay Buffer (150 mM NaCl, 50 mM Tris-HCl pH 7.6, 10 mM MgCl2, 0.001% Triton X-100, 4 mM β-mercaptoethanol); the mixture is incubated for 15 minutes at room temperature. The reaction is started with the addition of 10 μL of Substrate Mix (400 μM NADP^+, 40 μM iso-citrate, 5 ugr/mL Diaphorase and 7 μM resazurin in Assay Buffer), the mixture is incubated at room temperature and the reaction is reading on a ViewLux as platereader at Ex544/Em590 in continuous.

The target of another assay is T3, IDH2^R172K (Homo sapiens, UniProt P48735, R172K).
T3 construct: purchased not specified
T3 sequence (P48735 40-452 R172K): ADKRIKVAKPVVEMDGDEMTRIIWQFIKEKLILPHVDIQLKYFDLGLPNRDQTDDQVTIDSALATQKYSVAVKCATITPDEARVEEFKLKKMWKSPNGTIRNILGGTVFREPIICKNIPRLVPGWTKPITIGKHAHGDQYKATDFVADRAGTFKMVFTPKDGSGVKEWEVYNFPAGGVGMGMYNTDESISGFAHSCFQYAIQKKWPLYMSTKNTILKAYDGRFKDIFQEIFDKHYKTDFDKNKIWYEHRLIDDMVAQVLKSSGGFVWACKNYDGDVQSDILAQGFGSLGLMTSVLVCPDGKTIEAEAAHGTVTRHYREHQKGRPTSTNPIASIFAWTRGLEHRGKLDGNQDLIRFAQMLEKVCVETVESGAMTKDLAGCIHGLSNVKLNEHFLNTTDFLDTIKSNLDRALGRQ
Nature of the assay: NADPH depletion assay, IDH2 R172K. The assay is classed as biochemical. Put shortly:
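IDH2 R172K (16 nM) was preincubated 15 min at RT with compound (1:3 series from 1 mM in DMSO) in Tris pH 7.6/NaCl/MgCl2/Triton/β-mercaptoethanol. The reaction ran 60 min at RT with 0.55 mM alpha-ketoglutarate and NADPH (12 μM in the substrate mix). Remaining NADPH was read with diaphorase/resazurin fluorescence at Ex544/Em590.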

The next assay relates to U87MG_IDH1R132H. In words: Cellular 2-HG production assay, U87-MG-IDH1 R132H. The assay is classed as cell-based. To be noted: inhibition of 2HG production, 72 hr incubation, LC-MS/MS. In short, it runs like this:
(§1)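 Cells in E-MEM/10% FCS (G418 500 μg/mL for the transfected U87-MG line) at 500 per well got compound 24 h after seeding and were incubated 72 h at 37 °C. Medium 2-HG was measured by LC-MS/MS with 2-HG-d3 internal standard; IC50 came from sigmoidal fitting versus controls.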

Assay [1] has as its target T4, IDH1^R132H homodimer enzyme (Homo sapiens, UniProt O75874, R132H).
T4 construct: purchased not specified
Nature of the assay: NADPH depletion assay, IDH1 R132H. The assay is classed as biochemical. Put shortly:
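IDH1 R132H enzyme (8 nM as diluted) in Tris-HCl pH 7.6 with 10 mM MgCl2, 0.001% Triton X-100 and 4 mM β-mercaptoethanol is preincubated 15 min at RT with compound. Substrate mix (12 uM NADPH, 3.4 mM α-ketoglutarate) is added for 60 min; remaining NAD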

Another assay concerns HT-1080 (IDH1^R132C). Nature of the assay: Cellular 2-HG production assay, HT-1080. To be noted: Homo sapiens, HT-1080, 72 h, inhibition of 2HG production, 72 hr incubation, LC-MS/MS; read-out: HT1080 2-HG IC50. The assay is classed as cell-based. Put shortly: as §1

T4 sequence (O75874 whole entry R132H): as the sequence (O75874 whole entry) above, with R132H counted along it
T1 sequence (O75874 whole entry R132C): as the sequence (O75874 whole entry) above, with R132C counted along it

`C=CC(=O)N1CCC(Oc2ccc([C@H](C)Nc3ncc4ccc(=O)n(CC(C)(C)C)c4n3)cc2)CC1` [cpd 156, 2-{(S)-1-[4-(1-Acryloyl-piperidin-4-yloxy)-phenyl]-ethylamino}-8-(2,2-dimethyl-propyl)-8H-pyrido[2,3-d]pyrimidin-7-one]: the IC50 against IDH1^R132C stood at 91 nM; against IDH1WT enzyme, 2540 nM; on IDH2^R172K it was 476 nM; in the assay on U87MG_IDH1R132H, 289 nM; in assay [1], 139 nM.

On to `C=CC(=O)N1CCN([C@H](CC2CC2)c2ccc(C3(Nc4ncc5ccc(=O)n(C(C)C)c5n4)CC3)cc2)CC1` (single isomer, unassigned) [cpd 245], for which the IC50 was 1 nM in the assay with HT-1080 (IDH1^R132C); 2 nM against IDH1^R132C; 224 nM at IDH1WT enzyme; 20 nM against IDH2^R172K; 2 nM in assay [1].

`C=CC(=O)N1CCN([C@H](CC2CC2)c2ccc([C@H](C)Nc3ncc4ccc(=O)n(C(C)C)c4n3)cc2)CC1` [cpd 231, 2-{[(1S)-1-{4-[(1R)-1-(4-acryloylpiperazin-1-yl)-2-cyclopropylethyl]phenyl}ethyl]amino}-8-(propan-2-yl) pyrido [2,3-d]pyrimidin-7(8H)-one]: the IC50 is 0.3 nM in the assay with HT-1080 (IDH1^R132C); 1 nM against IDH1^R132C; 122 nM against IDH1WT enzyme; 14 nM against IDH2^R172K; 1 nM in assay [1].

On to `C=CC(=O)N1CCN(Cc2ccc([C@H](C)Nc3ncc4ccc(=O)n(CC(C)(C)C)c4n3)cc2F)CC1` [cpd 141, 2-{[(1S)-1-{4-[(4-acryloylpiperazin-1-yl)methyl]-3-fluorophenyl}ethyl]amino}-8-(2,2-dimethylpropyl)pyrido[2,3-d] pyrimidin-7(8H)-one], for which the IC50 against IDH1^R132C stood at 31 nM; against IDH1WT enzyme, 1820 nM; on IDH2^R172K it was 213 nM; in the assay on U87MG_IDH1R132H, 24 nM; in assay [1] it was 38 nM.

Regarding `C=CC(=O)N1CCN(c2ccc([C@H](C)Nc3ncc4ccc(=O)n([C@@H](C)C(C)C)c4n3)cc2)CC1` [cpd 175, 2-({(1S)-1-[4-(4-acryloylpiperazin-1-yl)phenyl]ethyl}amino)-8-[(2S)-3-methylbutan-2-yl]pyrido[2,3-d]pyrimidin-7(8H)-one], the IC50 is 66 nM at IDH1^R132C; 1170 nM on IDH1WT enzyme; 442 nM on IDH2^R172K; 21 nM in the assay with U87MG_IDH1R132H; 65 nM in assay [1].

On to `C=CC(=O)N1CCN([C@H](CC)c2ccc(C3(Nc4ncc5ccc(=O)n(C(C)C)c5n4)CC3)cc2)CC1` (single isomer, unassigned) [cpd 248], for which the IC50 with HT-1080 (IDH1^R132C) worked out at 3.1 nM; against IDH1^R132C, 2 nM; on IDH1WT enzyme it was 216 nM; against IDH2^R172K, 30 nM; in assay [1] it was 4 nM.

Turning to `C=CC(=O)N1CCC(Oc2ccc([C@H](C)Nc3ncc4ccc(=O)n([C@@H](C)C(C)C)c4n3)cc2)CC1` [cpd 159, 2-{(S)-1-[4-(1-Acryloyl-piperidin-4-yloxy)-phenyl]-ethylamino}-8-((S)-1,2-dimethyl-propyl)-8H-pyrido[2,3-d]pyrimidin-7-one], the IC50 came to 37 nM at IDH1^R132C; 1730 nM against IDH1WT enzyme; 510 nM at IDH2^R172K; 81 nM in the assay on U87MG_IDH1R132H; 77 nM in assay [1].

In the case of `C=CC(=O)N1CCN(C(CC)c2ccc([C@H](C)Nc3ncc4ccc(=O)n(CC)c4n3)cc2)CC1` (stereo partly drawn) [cpd 214, 2-{[(1S)-1-{4-[1-(4-acryloylpiperazin-1-yl)propyl]phenyl}ethyl]amino}-8-ethylpyrido[2,3-d]pyrimidin-7(8H)-one], the IC50 in the assay on HT-1080 (IDH1^R132C) is 2.1 nM; at IDH1^R132C, 2 nM; against IDH1WT enzyme, 64 nM; on IDH2^R172K, 15 nM; in assay [1] it was 4 nM.

As to `C=CC(=O)N1CCN(C(CC2CC2)c2ccc(C3(Nc4ncc5ccc(=O)n(C(C)C)c5n4)CC3)cc2)CC1` (stereo not drawn) [cpd 244, 2-[(1-{4-[1-(4-acryloylpiperazin-1-yl)-2-cyclopropylethyl]phenyl}cyclopropyl)amino]-8-(propan-2-yl)pyrido[2,3-d]pyrimidin-7(8H)-one], the IC50 with HT-1080 (IDH1^R132C) was determined as 1.6 nM; on IDH1^R132C, 3 nM; against IDH1WT enzyme, 220 nM; at IDH2^R172K, 21 nM; in assay [1], 2 nM.

Regarding `C=CC(=O)N1CCN([C@@H](CC2CC2)c2ccc(C3(Nc4ncc5ccc(=O)n(C(C)C)c5n4)CC3)cc2)CC1` (single isomer, unassigned) [cpd 246], the IC50 with HT-1080 (IDH1^R132C) was 2.1 nM; on IDH1^R132C, 1 nM; against IDH1WT enzyme it was 231 nM; at IDH2^R172K, 19 nM; in assay [1], 2 nM.

Take `C=CC(=O)N1CCN(Cc2ccc([C@H](C)Nc3ncc4ccc(=O)n(C(C)C)c4n3)cc2)CC1` [cpd 184, 2-{[(1S)-1-{4-[(4-acryloylpiperazin-1-yl)methyl]phenyl}ethyl]amino}-8-(propan-2-yl)pyrido[2,3-d]pyrimidin-7(8H)-one]: the IC50 was determined as 28 nM in the assay on HT-1080 (IDH1^R132C); 227 nM against IDH1^R132C; 2870 nM on IDH1WT enzyme; 201 nM on IDH2^R172K; 126 nM in assay [1].

For `C=CC(=O)N1CCN(C(=O)c2ccc([C@H](C)Nc3ncc4ccc(=O)n([C@@H](C)C(C)C)c4n3)cc2F)CC1` [cpd 191, 2-{[(1S)-1-{4-[(4-acryloylpiperazin-1-yl)carbonyl]-3-fluorophenyl}ethyl]amino}-8-[(2S)-3-methylbutan-2-yl]pyrido[2,3-d]pyrimidin-7(8H)-one], the IC50 in the assay with HT-1080 (IDH1^R132C) was determined as 40 nM; against IDH1^R132C, 116 nM; at IDH1WT enzyme, 2990 nM; at IDH2^R172K, 902 nM; in assay [1] it was 70 nM.

`C=CC(=O)N1CCN(C(CC)c2ccc(C3(Nc4ncc5ccc(=O)n(C(C)C)c5n4)CC3)cc2)CC1` (stereo not drawn) [cpd 247, 2-[(1-{4-[1-(4-acryloylpiperazin-1-yl)propyl]phenyl}cyclopropyl)amino]-8-(propan-2-yl)pyrido[2,3-d]pyrimidin-7(8H)-one]: the IC50 with HT-1080 (IDH1^R132C) turned out to be 3 nM; against IDH1^R132C it was 4 nM; on IDH1WT enzyme it was 215 nM; against IDH2^R172K it was 35 nM; in assay [1], 5 nM.

Turning to `C=CC(=O)N1CCN(Cc2ccc([C@H](C)Nc3nc(N)c4ccc(=O)n(C(C)C)c4n3)cc2)CC1` [cpd 206, 2-{[(1S)-1-{4-[(4-acryloylpiperazin-1-yl)methyl]phenyl}ethyl]amino}-4-amino-8-(propan-2-yl)pyrido[2,3-d]pyrimidin-7(8H)-one], the IC50 was 10.1 nM with HT-1080 (IDH1^R132C); 15 nM on IDH1^R132C; 221 nM against IDH1WT enzyme; 98 nM against IDH2^R172K; 13 nM in assay [1].

Consider `C=CC(=O)N1CCC(C#N)(c2ccc([C@H](C)Nc3ncc4ccc(=O)n(C(C)C)c4n3)cc2)CC1` [cpd 241, 1-acryloyl-4-{4-[(1S)-1-{[7-oxo-8-(propan-2-yl)-7,8-dihydropyrido[2,3-d]pyrimidin-2-yl]amino}ethyl]phenyl}piperidine-4-carbonitrile], for which the IC50 in the assay with HT-1080 (IDH1^R132C) was found to be 64.7 nM; against IDH1^R132C, 196 nM; against IDH1WT enzyme, 117 nM; against IDH2^R172K, 146 nM; in assay [1] it was 272 nM.

As a reminder, the IC50 is the midpoint of a concentration-inhibition curve.
